Values quoted from earlier work as cited in patent US20020172713A1, “Micron sized bicarbonate particles and slurrys containing the same” (Church & Dwight, Co., Inc., priority 2001, published 2002).
Read-outs that look alike come from different tables or passages of the source.

Details: prior art particles, dilution of about 70% by weight slurry with additional water

- alkali metal bicarbonate particles dissolved in dilution (10° C.): 7%
- alkali metal bicarbonate particles dissolved in dilution (22° C.): 8.5%
Compound: O=C([O-])O.[Na+] [sodium bicarbonate]
